Reference: patent US7625927B2, “Method of treating glaucoma” (Alcon Research, Ltd., priority 2006, dated 2009)

System: cultured adult rat retinal ganglion cells (RGCs)
Experiment: Glutamate-induced toxicity in cultured adult rat retinal ganglion cells (RGC survival, Thy-1-positive cell count)
Format: cell-based
Conditions: Compound at 1 μM, 30 min pre-treatment, then 100 μM glutamate for 3 days; Thy-1-positive healthy cells counted; 70% of RGCs survived with glutamate alone
Method: Adult Sprague-Dawley rats were euthanized by CO2 asphyxiation. Their eyes were enucleated and the retinas isolated. Retinal cells were treated with of papain solution for 25 min at 37° C., then washed 3 times with 5 mL RGC culture medium (Neurobasal medium with various nutrient supplements+1% fetal calf serum). Retinal cells were dispersed by trituration. Cell suspension was placed onto poly-D-lysine- and laminin-coated 8-well chambered culture slides. The cells were then cultured in 95% air/5% CO2 at 37° C.
For glutamate-induced toxicity studies, cells were pre-treated with vehicle or the indicated compounds for 30 minutes, followed by 100 μM glutamate for 3 days. At the end of the incubation period, the cells were fixed and labeled for Thy-1, a RGC marker, by immunocytochemistry. Cell survival was quantified by manually counting Thy-1-positive healthy cells in each well.

Compound: COC(=O)CNC(=O)c1ncccc1O [Compound 1]
- protection against glutamate-induced cytotoxicity (RGC survival): protective against this insult
